# Columns and labels:
# [1] = target: T1, human SLC6A19 (Homo sapiens, UniProt Q695T7); assay: Example B-1: L-[3H]leucine uptake, liquid scintillation, in CHO cells with doxycycline-inducible expression of human SLC6A19 and TMEM27; type: cell-based; settings: read-out: SLC6A19_Radioligand Uptake Assay IC50
# T1 construct: expressed in transfected cells
# T1 sequence (Q695T7 1-634): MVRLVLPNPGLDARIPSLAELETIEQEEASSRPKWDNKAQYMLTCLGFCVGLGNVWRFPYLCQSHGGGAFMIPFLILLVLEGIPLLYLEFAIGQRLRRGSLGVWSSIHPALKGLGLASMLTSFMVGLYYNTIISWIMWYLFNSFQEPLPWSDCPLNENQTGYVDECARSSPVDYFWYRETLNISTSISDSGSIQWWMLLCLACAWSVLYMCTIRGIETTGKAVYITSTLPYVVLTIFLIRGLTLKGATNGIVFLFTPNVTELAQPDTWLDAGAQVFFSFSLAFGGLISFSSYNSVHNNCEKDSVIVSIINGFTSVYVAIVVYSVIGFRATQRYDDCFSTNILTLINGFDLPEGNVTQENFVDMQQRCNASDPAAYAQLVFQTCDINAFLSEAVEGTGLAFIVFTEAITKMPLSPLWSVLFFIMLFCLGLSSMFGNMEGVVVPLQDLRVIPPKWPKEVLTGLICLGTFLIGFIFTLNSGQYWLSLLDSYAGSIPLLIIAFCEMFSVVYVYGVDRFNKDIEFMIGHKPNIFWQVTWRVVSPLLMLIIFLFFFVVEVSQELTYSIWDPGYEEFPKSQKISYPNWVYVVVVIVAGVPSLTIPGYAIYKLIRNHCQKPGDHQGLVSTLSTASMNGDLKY
# T1 sequence (Q9HBJ8 15-222 partner): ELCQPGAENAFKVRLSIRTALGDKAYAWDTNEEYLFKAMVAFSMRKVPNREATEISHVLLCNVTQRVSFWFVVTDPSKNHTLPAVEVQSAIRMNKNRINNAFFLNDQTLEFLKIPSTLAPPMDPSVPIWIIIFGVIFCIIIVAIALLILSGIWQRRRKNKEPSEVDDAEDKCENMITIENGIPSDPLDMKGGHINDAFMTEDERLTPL
# Outline: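 CHO cells induced 18 h with 1 µg/mL doxycycline (uninduced wells as expression control), washed in HBSS, compound in 8-point 3-fold series (0.5% DMSO), then 1.6 mM final [3H]:cold leucine (1:15000) uptake for 20 min at 37 °C. Scintillation counting; activity normalized to positive control (0%) and DMSO (100%).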
# [2] = target: T1, human SLC6A19; assay: Example B2: 13C6,15N-isoleucine uptake, RapidFire mass spectrometry, in CHO cells with doxycycline-inducible expression of human SLC6A19 and TMEM27; type: cell-based; settings: read-out: SLC6A19_RapidFire Uptake Assay IC50
# Outline: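 CHO cells were induced with doxycycline to express human SLC6A19 with TMEM27, then pre-incubated 20 min at 37 °C with compounds (2-fold, 10-point, duplicate). Uptake of 13C6,15N-isoleucine (2 mM solution added) over a further 20 min was measured by RapidFire mass spectrometry, using 13C-leucine as internal standard.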
IC50 [1] [nM],IC50 [2] [nM],Compound
640,518,"CN(C(=O)NCc1cc2cc(Cl)ccc2[nH]1)[C@@H]1CCCN(C(=O)c2ccccc2O)C1 [Compound 196, (R)-3-((5-chloro-1H-indol-2-yl)methyl)-1-(1-(2-hydroxybenzoyl)piperidin-3-yl)-1-methylurea]"
350,512,"Cc1nc(C(=O)N2CCC[C@@H](N(C)C(=O)NCc3cc4cc(Cl)ccc4[nH]3)C2)co1 [Compound 200, (R)-3-((5-chloro-1H-indol-2-yl)methyl)-1-methyl-1-(1-(2-methyloxazole-4-carbonyl)piperidin-3-yl)urea]"
574,738,"CCc1ccc2[nH]c(CNC(=O)N(C)[C@@H]3CCCN(C(C)=O)C3)cc2c1 [Compound 217, (R)-1-(1-acetylpiperidin-3-yl)-3-((5-ethyl-1H-indol-2-yl)methyl)-1-methylurea]"
> 10000,12900,"CCc1ccc2cc(CNC(=O)N(C)[C@@H]3CCCN(C(C)=O)C3)[nH]c2c1 [Compound 219, (R)-1-(1-acetylpiperidin-3-yl)-3-((6-ethyl-1H-indol-2-yl)methyl)-1-methylurea]"

# Continued, compound first:
Compound,IC50 [1] [nM],IC50 [2] [nM]
"CN(C(=O)NCc1cc2cc(Cl)ccc2[nH]1)[C@@H]1CCCN(C(=O)Cc2ccno2)C1 [Compound 194, (R)-3-((5-chloro-1H-indol-2-yl)methyl)-1-(1-(2-(isoxazol-5-yl)acetyl)piperidin-3-yl)-1-methylurea]",197,242
"CC(=O)N1CCC[C@@H](N(CC(F)(F)F)C(=O)NCc2cc3cc(Cl)ccc3[nH]2)C1 [Compound 195, (R)-1-(1-acetylpiperidin-3-yl)-3-((5-chloro-1H-indol-2-yl)methyl)-1-(2,2,2-trifluoroethyl)urea]",102,62
"CN(C(=O)NCc1cc2cc(Cl)ccc2[nH]1)[C@@H]1CCCN(C(=O)Cc2ccn(C)n2)C1 [Compound 197, (R)-3-((5-chloro-1H-indol-2-yl)methyl)-1-methyl-1-(1-(2-(1-methyl-1H-pyrazol-3-yl)acetyl)piperidin-3-yl)urea]",219,396
"CN(C(=O)NCc1cc2cc(Cl)ccc2[nH]1)[C@@H]1CCCN(C(=O)c2ccn(CC(F)(F)F)n2)C1 [Compound 198, (R)-3-((5-chloro-1H-indol-2-yl)methyl)-1-methyl-1-(1-(1-(2,2,2-trifluoroethyl)-1H-pyrazole-3-carbonyl)piperidin-3-yl)urea]",232,163
"CN(C(=O)NCc1cc2cc(Cl)ccc2[nH]1)[C@@H]1CCCN(C(=O)Cc2cn[nH]c2)C1 [Compound 199, (R)-1-(1-(2-(1H-pyrazol-4-yl)acetyl)piperidin-3-yl)-3-((5-chloro-1H-indol-2-yl)methyl)-1-methylurea]",434,582
"CN(C(=O)NCc1cc2cc(Cl)ccc2[nH]1)[C@@H]1CCCN(C(=O)Cc2ccon2)C1 [Compound 201, (R)-3-((5-chloro-1H-indol-2-yl)methyl)-1-(1-(2-(isoxazol-3-yl)acetyl)piperidin-3-yl)-1-methylurea]",205,227
"CN(C(=O)NCc1cc2cc(Cl)ccc2[nH]1)[C@@H]1CCCN(C(=O)Cc2cocn2)C1 [Compound 202, (R)-3-((5-chloro-1H-indol-2-yl)methyl)-1-methyl-1-(1-(2-(oxazol-4-yl)acetyl)piperidin-3-yl)urea]",168,689
"CN(C(=O)NCc1cc2cc(Cl)ccc2[nH]1)[C@@H]1CCCN(C(=O)Cc2ncco2)C1 [Compound 204, (R)-3-((5-chloro-1H-indol-2-yl)methyl)-1-methyl-1-(1-(2-(oxazol-2-yl)acetyl)piperidin-3-yl)urea]",256,763
"CC(=O)N1CCC[C@@H](N(C)C(=O)NCc2cc3cc(C)ccc3[nH]2)C1 [Compound 218, (R)-1-(1-acetylpiperidin-3-yl)-1-methyl-3-((5-methyl-1H-indol-2-yl)methyl)urea]",273,647

# Reference: patent US20260184693A1, “INHIBITORS OF SOLUTE CARRIER FAMILY 6A MEMBER 19 (SLC6A19) AND METHODS OF USE THEREOF” (Maze Therapeutics, Inc., priority 2022, published 2026)
